Holding throughout (test): Patch clamp, HEK293, mutant GABAAR
What all share (format): cell-based
Background: In patch-clamp work, channel activity is measured electrically.

One test has as its target T1, α1 β2^E181G γ2 GABAAR (Rattus norvegicus, UniProt P62813+P63138, E206G).
T1 construct: expressed in transfected cells; host or cells: HEK293
The settings on record: normalized to wild-type α1β2γ2; for Relative potentiation: glutamate 100 μM co-applied with GABA 1 μM. The source says:
(§1) The subunits are color-coded individually. The boxed regions are further enlarged in the middle panels, highlighting the predicted glutamate binding pocket in the α+ and β− interface, just below the loop C. […] Relative potentiation was obtained by normalizing potentiation observed in the mutated receptor to that in the respective wild-type receptor.
(§2) To positively confirm one of these two putative binding sites involved in glutamate binding, we performed a systemic mutational analysis of critical amino acids around these two sites followed by electrophysiological characterizations of their impacts on glutamate potentiation in HEK293 cells expressing wild-type or mutated α1β2γ2 GABAARs (Table 1).
(§3) HEK293 cells were cultured in DMEM (Invitrogen) supplemented with 10% fetal bovine serum. Cells were grown to 40–60% confluence and transiently transfected using Lipofectamine 2000 (Invitrogen) with 1:0.5–1 plasmid/lipid ratio. Cells were transfected with a pBK-CMV expression vector containing a rat recombinant GABAAR α, β or γ subunits. Co-transections were done with a plasmid ratio of 1:1 αβ and 2:2:1 for αβγ subunit combinations, respectively. pcDNA3.1-GFP was also co-transfected along with GABAAR subunits as a transfected marker in order to facilitate the visualization of the transfected cells during electrophysiological experiments. Cells were re-plated on glass coverslips after 15–20 h transfection and were cultured for an additional 15–24 h before whole-cell patch-clamp recordings.
(§4) The site-directed mutagenesis of α, β or γ subunits were performed by using the QuikChange method (Stratagene). […] Wild-type or mutant subunits were transfected in HEK293 cells and subjected to electrophysiology examinations.
(§5) Whole-cell patch-clamp recordings were performed under voltage-clamp mode using an Axopatch 200B or 1D patch-clamp amplifier (Molecular Devices) on HEK293 cells and cultured neurons. Whole-cell currents were recorded at a holding potential of −60 mV, and signals were filtered at 2 kHz, digitized at 10 kHz (Digidata 1322 A). Recording pipettes (3–5 MΩ) were filled with the intracellular solution that contained (mM): CsCl 140, HEPES 10, Mg-ATP 4, QX-314 5, pH 7.20; osmolarity, 290–295 mOsm. BAPTA (10 mM) was added in the intracellular solution. The coverslips were continuously superfused with the extracellular solution containing (mM): NaCl 140, KCl 5.4, HEPES 10, MgCl2 1.0, CaCl2 1.3, glucose 20, pH 7.4; osmolarity, 305–315 mOsm. […] Dose–response curves were created by fitting data to Hill equation: I = Imax/[1 + (EC50/[A])^n], where I is the current, Imax is the maximum current, [A] is a given concentration of agonist, n is the Hill coefficient. […] All experiments were performed at room temperature.

A further test addresses T2, α1^E137G β2 γ2 GABAAR (Rattus norvegicus, UniProt P62813+P63138, E164G).
T2 construct: expressed in transfected cells; host or cells: HEK293
The conditions noted are these: Glu 1 mM; GABA 1 µM; normalized to wild-type α1β2γ2.
From the text: as §1, §2, §3, §4, §5

Another test concerns the target T3, α1^K104D β2 γ2 GABAAR (Rattus norvegicus, UniProt P62813+P63138, K131D).
T3 construct: expressed in transfected cells; host or cells: HEK293
The conditions noted are these: Glu 1 mM; GABA 1 µM; normalized to wild-type α1β2γ2.
From the text: as §1, §2, §3, §4, §5

The next test deals with T4, α1^K155D β2 γ2 GABAAR (Rattus norvegicus, UniProt P62813+P63138, K182D).
T4 construct: expressed in transfected cells; host or cells: HEK293
T4 sequence (P62813 28-455 K182D): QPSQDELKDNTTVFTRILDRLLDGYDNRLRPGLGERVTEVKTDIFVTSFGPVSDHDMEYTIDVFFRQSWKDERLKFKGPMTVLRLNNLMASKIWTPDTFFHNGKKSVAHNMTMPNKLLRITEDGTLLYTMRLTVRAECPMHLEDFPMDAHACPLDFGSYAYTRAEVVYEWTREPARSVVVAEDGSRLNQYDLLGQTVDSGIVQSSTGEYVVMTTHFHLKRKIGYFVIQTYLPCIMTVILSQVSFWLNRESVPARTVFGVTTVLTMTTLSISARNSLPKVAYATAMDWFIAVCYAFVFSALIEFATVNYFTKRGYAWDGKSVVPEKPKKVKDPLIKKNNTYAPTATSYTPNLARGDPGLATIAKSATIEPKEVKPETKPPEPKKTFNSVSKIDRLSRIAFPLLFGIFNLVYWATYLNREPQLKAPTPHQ
T4 sequence (P63138 26-474): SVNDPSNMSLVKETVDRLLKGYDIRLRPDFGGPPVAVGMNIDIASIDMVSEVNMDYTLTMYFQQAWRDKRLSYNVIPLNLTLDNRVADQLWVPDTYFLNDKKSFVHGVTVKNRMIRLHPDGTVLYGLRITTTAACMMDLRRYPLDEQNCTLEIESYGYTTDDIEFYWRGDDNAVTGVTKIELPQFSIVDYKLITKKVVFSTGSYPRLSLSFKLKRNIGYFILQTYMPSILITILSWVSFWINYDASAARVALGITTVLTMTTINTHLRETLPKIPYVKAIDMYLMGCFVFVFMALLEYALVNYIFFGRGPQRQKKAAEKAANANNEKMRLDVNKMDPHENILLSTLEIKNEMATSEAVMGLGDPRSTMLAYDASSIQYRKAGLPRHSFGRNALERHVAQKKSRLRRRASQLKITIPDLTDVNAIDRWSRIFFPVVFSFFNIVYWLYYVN
T4 sequence (P18508 39-466 partner): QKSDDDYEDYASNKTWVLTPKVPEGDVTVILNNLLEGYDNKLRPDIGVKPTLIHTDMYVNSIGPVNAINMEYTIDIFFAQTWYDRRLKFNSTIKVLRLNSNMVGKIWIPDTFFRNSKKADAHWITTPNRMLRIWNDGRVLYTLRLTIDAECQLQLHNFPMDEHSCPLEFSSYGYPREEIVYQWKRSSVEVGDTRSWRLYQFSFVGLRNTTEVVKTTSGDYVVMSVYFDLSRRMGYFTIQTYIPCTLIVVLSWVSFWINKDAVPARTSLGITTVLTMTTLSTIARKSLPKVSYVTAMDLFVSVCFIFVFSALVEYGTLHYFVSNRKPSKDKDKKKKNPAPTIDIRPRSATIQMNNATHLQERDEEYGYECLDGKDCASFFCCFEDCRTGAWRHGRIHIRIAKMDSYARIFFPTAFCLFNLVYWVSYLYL
The settings on record: Glu 1 mM; GABA 1 µM; normalized to wild-type α1β2γ2.
From the text: as §1, §2, §3, §4, §5

A further test concerns the target T5, αE137Dβγ GABAAR (Rattus norvegicus, UniProt P62813+P63138, E164D).
T5 construct: expressed in transfected cells; host or cells: HEK293
The conditions noted are these: HEK293, read-out: Glutamate potentiation of GABA currents, % of control, normalized to wild-type α1β2γ2.
From the text: (§6) To further determine the relative significance between the electrostatic and the side chain steric arrangements of these critical amino acid residues in their interaction with glutamate, we next studied the effects of substitution of these amino acids with amino acids of various sizes or charges on the glutamate potentiation. We substituted α1K104, α1E137, α1K155, or β2E181 with […], a non-charged amino acid, in order to perturb the electrostatic accessibility of glutamate to the binding pocket.
(§7) Fig. 4 Property characterization of glutamate binding sites in HEK cells expressing wild-type or mutated αβγ GABAARs. a, b The effects of electrostatic charge and/or size of the pocket-forming residues on glutamate-induced functional modulation.
as §3, §4, §5

A further test deals with T6, αE137Wβγ GABAAR (Rattus norvegicus, UniProt P62813+P63138, E164W).
T6 construct: expressed in transfected cells; host or cells: HEK293
T6 sequence (P62813 28-455 E164W): as the sequence (P62813 28-455 K182D) above, with E137W, D155K counted along it
T6 sequence (P63138 26-474): as the sequence (P63138 26-474) above
T6 sequence (P18508 39-466 partner): as the sequence (P18508 39-466 partner) above
The settings on record: HEK293, read-out: Glutamate potentiation of GABA currents, % of control, normalized to wild-type α1β2γ2.
From the text: as §6, §7, §3, §4, §5

A further test deals with T7, αK104Wβγ GABAAR (Rattus norvegicus, UniProt P62813+P63138, K131W).
T7 construct: expressed in transfected cells; host or cells: HEK293
T7 sequence (P62813 28-455 K131W): as the sequence (P62813 28-455 K182D) above, with K104W, D155K counted along it
T7 sequence (P63138 26-474): as the sequence (P63138 26-474) above
T7 sequence (P18508 39-466 partner): as the sequence (P18508 39-466 partner) above
The conditions noted are these: HEK293, read-out: Glutamate potentiation of GABA currents, % of control, normalized to wild-type α1β2γ2.
From the text: as §6, §7, §3, §4, §5

Another test deals with T8, αK155Rβγ GABAAR (Rattus norvegicus, UniProt P62813+P63138, K182R).
T8 construct: expressed in transfected cells; host or cells: HEK293
T8 sequence (P62813 28-455 K182R): as the sequence (P62813 28-455 K182D) above, with D155R counted along it
T8 sequence (P63138 26-474): as the sequence (P63138 26-474) above
T8 sequence (P18508 39-466 partner): as the sequence (P18508 39-466 partner) above
The settings on record: HEK293, read-out: Glutamate potentiation of GABA currents, % of control, normalized to wild-type α1β2γ2.
From the text: as §6, §7, §3, §4, §5

A further test addresses T9, αK155Wβγ GABAAR (Rattus norvegicus, UniProt P62813+P63138, K182W).
T9 construct: expressed in transfected cells; host or cells: HEK293
The settings on record: HEK293, read-out: Glutamate potentiation of GABA currents, % of control, normalized to wild-type α1β2γ2.
From the text: as §6, §7, §3, §4, §5

The next test concerns the target T10, αβE181Dγ GABAAR (Rattus norvegicus, UniProt P62813+P63138, E206D).
T10 construct: expressed in transfected cells; host or cells: HEK293
The settings on record: HEK293, read-out: Glutamate potentiation of GABA currents, % of control, normalized to wild-type α1β2γ2.
From the text: as §6, §7, §3, §4, §5

A further test has as its target T11, αβE181Wγ GABAAR (Rattus norvegicus, UniProt P62813+P63138, E206W).
T11 construct: expressed in transfected cells; host or cells: HEK293
The conditions noted are these: HEK293, read-out: Glutamate potentiation of GABA currents, % of control, normalized to wild-type α1β2γ2.
From the text: as §6, §7, §3, §4, §5

These results are taken from PMC9527238, “Glutamate and GABAA receptor crosstalk mediates homeostatic regulation of neuronal excitation in the mammalian brain” (Signal Transduction and Targeted Therapy, 2022).

T1 sequence (P62813 28-455): as the sequence (P62813 28-455 K182D) above, with D155K counted along it
T1 sequence (P63138 26-474 E206G): as the sequence (P63138 26-474) above, with E181G counted along it
T1 sequence (P18508 39-466 partner): as the sequence (P18508 39-466 partner) above
T5 sequence (P62813 28-455 E164D): as the sequence (P62813 28-455 K182D) above, with E137D, D155K counted along it
T5 sequence (P63138 26-474): as the sequence (P63138 26-474) above
T5 sequence (P18508 39-466 partner): as the sequence (P18508 39-466 partner) above
T9 sequence (P62813 28-455 K182W): as the sequence (P62813 28-455 K182D) above, with D155W counted along it
T9 sequence (P63138 26-474): as the sequence (P63138 26-474) above
T9 sequence (P18508 39-466 partner): as the sequence (P18508 39-466 partner) above
T10 sequence (P62813 28-455): as the sequence (P62813 28-455 K182D) above, with D155K counted along it
T10 sequence (P63138 26-474 E206D): as the sequence (P63138 26-474) above, with E181D counted along it
T10 sequence (P18508 39-466 partner): as the sequence (P18508 39-466 partner) above
T11 sequence (P62813 28-455): as the sequence (P62813 28-455 K182D) above, with D155K counted along it
T11 sequence (P63138 26-474 E206W): as the sequence (P63138 26-474) above, with E181W counted along it
T11 sequence (P18508 39-466 partner): as the sequence (P18508 39-466 partner) above
T3 sequence (P62813 28-455 K131D): as the sequence (P62813 28-455 K182D) above, with K104D, D155K counted along it
T3 sequence (P63138 26-474): as the sequence (P63138 26-474) above
T3 sequence (P18508 39-466 partner): as the sequence (P18508 39-466 partner) above
T2 sequence (P62813 28-455 E164G): as the sequence (P62813 28-455 K182D) above, with E137G, D155K counted along it
T2 sequence (P63138 26-474): as the sequence (P63138 26-474) above
T2 sequence (P18508 39-466 partner): as the sequence (P18508 39-466 partner) above

On to `N[C@@H](CCC(=O)O)C(=O)O` [glutamate, Glutamate], for which the “Relative potentiation, % of control” value on α1 β2^E181G γ2 GABAAR (Glu 1 mM, GABA 1 µM) is given as 1.8 ± 9.6%; at α1^E137G β2 γ2 GABAAR, 26.9 ± 6.4%; at α1^K104D β2 γ2 GABAAR it was 18.6 ± 6.3%; at α1^K155D β2 γ2 GABAAR it was 19.8 ± 11.7%. The Relative potentiation at α1 β2^E181G γ2 GABAAR and at α1 β2^E181G γ2 GABAAR (listed as Glu) was 1.6 ± 11.6% in each case. Besides, the activity at 100 µM at αE137Dβγ GABAAR (Glu 100 μM) stood at 106 ± 18.3%; at αE137Wβγ GABAAR (Glu 100 μM), 14.7 ± 6.3%; on αK104Wβγ GABAAR (Glu 100 μM) it was 17.8 ± 15.3%; at αK155Rβγ GABAAR (Glu 100 μM), 88.4 ± 22.5%; on αK155Wβγ GABAAR (Glu 100 μM), 4 ± 4.7%; on αβE181Dγ GABAAR (Glu 100 μM) it was 155 ± 39.5%. In addition, the activity at 100 µM at αβE181Wγ GABAAR (Glu 100 μM) came to 5.4 ± 4.9%. The activity at 1000 µM was 91.5 ± 15.4% at αE137Dβγ GABAAR (Glu 1 mM); 21.1 ± 4.4% at αE137Wβγ GABAAR (Glu 1 mM); 50.8 ± 17.2% on αK104Wβγ GABAAR (Glu 1 mM); 106 ± 20.4% on αK155Rβγ GABAAR (Glu 1 mM); 29.9 ± 8.8% on αK155Wβγ GABAAR (Glu 1 mM); 102 ± 24.5% at αβE181Dγ GABAAR (Glu 1 mM). Further, the activity at 1000 µM on αβE181Wγ GABAAR (Glu 1 mM) is 7.6 ± 4.3%.
